Data on eleven molecules can be found in patent publication US4886667A, “External preparation composition” (priority 1985, dated 1989).

The subject of data set [1] is Trichophyton mentagrophytes IFO 5810. Description: Antifungal activity in vivo by trichophytosis of guinea pig. As to conditions: 1% solution; for Fungal negativity index / Healing index: 0.1 ml once a day for 8 days, guinea pig trichophytosis.
Data set [2] concerns Microsporum gypseum IFO 8231. In words: Minimum inhibitory concentration (MIC), agar dilution method, standard strains. The following applies: for MIC: Nannizzia gypsea, read-out: Minimum inhibitory concentration to standard strains. The data set is classed as cell-based.
In data set [3] the test system is Staphylococcus aureus ATCC 6538P. The description is as above. As to conditions: for MIC: Staphylococcus aureus, ATCC6538P, 48 h, read-out: Minimum inhibitory concentration to standard strains; for Minimum inhibitory concentration to standard strains: Staphylococcus aureus ATCC 6538P, aerobic, 37° C., 48 hrs.
Data set [4] relates to Trichophyton mentagrophytes IFO 5466. Described as above. It counts as cell-based. As to conditions: for MIC: read-out: Minimum inhibitory concentration to standard strains.
Data set [5] concerns Trichophyton rubrum IFO 5467. The description is as above. The data set is classed as cell-based. As to conditions: for MIC: read-out: Minimum inhibitory concentration to standard strains.
For data set [6], the system named is Fusobacterium nucleatum ATCC 25586. Described as above. It counts as cell-based. As to conditions: 37° C., 60 hrs; for MIC: ATCC25586, anaerobic.
The subject of data set [7] is Corynebacterium acnes ATCC 11828. The description is as above. The data set is classed as cell-based. The following applies: for MIC: Cutibacterium acnes, read-out: Minimum inhibitory concentration to standard strains.
Data set [8] deals with Bacteroides fragilis RIMD 023001. Described as above. As to conditions: 37° C., 60 hrs; for MIC: RIMD023001, anaerobic; for Minimum inhibitory concentration to standard strains: anaerobic. It counts as cell-based.
For data set [9], the system named is Staphylococcus epidermidis ATCC 12228. Described as above. As to conditions: for MIC: Staphylococcus epidermidis, ATCC12228, 48 h, read-out: Minimum inhibitory concentration to standard strains; for Minimum inhibitory concentration to standard strains: Staphylococcus epidermidis ATCC 12228, aerobic, 37° C., 48 hrs.
Data set [10] deals with Staphylococcus pyogenes ATCC 10389. Described as above. The following applies: aerobic, 37° C., 48 hrs.
Data set [11] has as its system Candida albicans ATCC 10261. The description is as above. The following applies: for Minimum inhibitory concentration to standard strains: yeast, Sabouraud medium; for MIC: ATCC10261, read-out: Minimum inhibitory concentration to standard strains.
Data set [12] deals with Bacteroides fragilis (48 isolated strains). In words: MIC against clinically isolated strains (cumulation percent). The data set is classed as cell-based. As to conditions: for MIC: 60 h, read-out: range of effective concentration.
Data set [13] relates to clinically isolated anaerobic bacteria. The data set is classed as cell-based. As to conditions: 70 isolated strains of the tested bacteria.
Data set [14] has as its system Clostridium perfringens (9 isolated strains). The data set is classed as cell-based. As to conditions: 9 isolated strains of clostridium perfringens.
A further data set is described as follows: Acute toxicity in mice. As to conditions: for LD50 / Mortalities (Dead/Treated): male mice; for LD50: 23040 min; for Mortalities (Dead/Treated): 16 days.
[15] abbreviates: IFO8231, Microsporum gypseum IFO 8231, aerobic, 168 hrs.
Setting [16] is: IFO5466, Trichophyton mentagrophytes IFO 5466, aerobic, 168 hrs.
Where [17] appears, read: IFO5467, Trichophyton rubrum IFO 5467, aerobic, 168 hrs.
Setting [18] is: ATCC11828, Corynebacterium acnes ATCC 11828, anaerobic, 37° C., 60 hrs.
[19] abbreviates: 48 isolated strains of Bacteroides fragilis, 100% efficiency stated for Ratanhiaphenol.

In brackets after ≈: the same amount, converted by molar mass. Where two headings read alike, the source gives them in different places.

As to `Clc1ccccc1C(c1ccccc1)(c1ccccc1)n1ccnc1` [Clotrimazole], in data set [1], the Fungal negativity index is 88% and the Healing index is on record as 60%.

For the molecule `CC1(C)S[C@@H]2[C@H](NC(=O)[C@H](C(=O)O)c3ccsc3)C(=O)N2[C@H]1C(=O)O` [L, Ticarcillin], the MIC in [2] (setting [15]) was more than 1000 µg/mL; in data set [3], 3.13 µg/mL (≈ 8.14 µM); in data set [4] (setting [16]), more than 1000 µg/mL; in data set [5] (setting [17]), more than 1000 µg/mL; in data set [6], 6.25 µg/mL (≈ 16.3 µM); in data set [7] (setting [18]) it was 50 µg/mL (≈ 130 µM). For the same molecule, the MIC was 50 µg/mL (≈ 130 µM) in [8] and 6.25 µg/mL (≈ 16.3 µM) in data set [9].

For the molecule `CC1(C)S[C@@H]2[C@H](NC(=O)[C@H](NC(=O)c3cnc4cccnc4c3O)c3ccccc3)C(=O)N2[C@H]1C(=O)O` [M, Apalcillin], the MIC in data set [2] (setting [15]) was more than 1000 µg/mL; in data set [3] it was 50 µg/mL (≈ 95.9 µM); in [4] (setting [16]), more than 1000 µg/mL; in data set [5] (setting [17]) it was more than 1000 µg/mL; in [6], 12.5 µg/mL (≈ 24 µM); in [7] (setting [18]) it was 25 µg/mL (≈ 47.9 µM). The MIC was 50 µg/mL (≈ 95.9 µM) in data set [8] and 25 µg/mL (≈ 47.9 µM) in data set [9].

As to `Cc1cc(O)ccc1C(C)C` [N, Isopropylmethylphenol], the “Minimum inhibitory concentration to standard strains” value (“Minimum inhibitory concentration” below) amounted to 400 µg/mL (≈ 2660 µM) in data set [3]; 100 µg/mL (≈ 666 µM) in data set [10]; 200 µg/mL (≈ 1330 µM) in data set [11]; 400 µg/mL (≈ 2660 µM) in data set [8]; 200 µg/mL (≈ 1330 µM) in [9].

Turning to `COC1=CC(=O)C[C@@H](C)[C@]12Oc1c(Cl)c(OC)cc(OC)c1C2=O` [O, Griseofulvin], the MIC in data set [2] (setting [15]) was 6.25 µg/mL (≈ 17.7 µM); in data set [3], more than 1000 µg/mL; in data set [4] (setting [16]), 6.25 µg/mL (≈ 17.7 µM); in [5] (setting [17]) it was 6.25 µg/mL (≈ 17.7 µM); in data set [11], more than 1000 µg/mL; in data set [8], 200 µg/mL (≈ 567 µM). The MIC in data set [9] was more than 1000 µg/mL.

With `Cc1cccc(N(C)C(=S)Oc2ccc3ccccc3c2)c1` [P, Tolnaftate], the MIC in data set [2] (setting [15]) is 0.1 µg/mL (≈ 0.325 µM); in data set [3] it was more than 1000 µg/mL; in data set [4] (setting [16]), 0.1 µg/mL (≈ 0.325 µM); in data set [5] (setting [17]) it was 0.1 µg/mL (≈ 0.325 µM); in data set [6], 200 µg/mL (≈ 651 µM); in [11], more than 1000 µg/mL. For the same molecule, in data set [9], the MIC is more than 1000 µg/mL.

Consider `C=CCCCCCCCCC(=O)O` [Q, Undecylenic acid], for which the MIC was 6.25 µg/mL (≈ 33.9 µM) in data set [2] (IFO8231, 168 h); more than 1000 µg/mL in data set [3]; 12.5 µg/mL (≈ 67.8 µM) in data set [4] (Trichophyton mentagrophytes, IFO5466, 168 h); 12.5 µg/mL (≈ 67.8 µM) in data set [5] (Trichophyton rubrum, IFO5467, 168 h); 400 µg/mL (≈ 2170 µM) in data set [7] (ATCC11828, 60 h); 200 µg/mL (≈ 1090 µM) in [11]. Further, the MIC in [9] is more than 1000 µg/mL.

In the case of `CN(C)[C@@H]1C(=O)C(C(N)=O)=C(O)[C@@]2(O)C(=O)C3=C(O)c4c(O)cccc4[C@@](C)(O)[C@H]3C[C@@H]12` [R, Tetracycline], the MIC in data set [12] (Bacteroides fragilis) lay in the range of 1.56 to 400 µg/mL (≈ 3.51 to 900 µM).

In the case of `CC1=C(C(=O)O)N2C(=O)[C@@H](NC(=O)[C@H](N)c3ccccc3)[C@H]2SC1` [S, Cefalexin], the MIC in data set [12] (setting [19]) lay in the range of 3.13 to 400 µg/mL (≈ 9.01 to 1150 µM).

In the case of `C[CH2][Hg][S]c1ccccc1C(=O)[O-].[Na+]` [Thimerosal], in data set [1], the Fungal negativity index is 100% and the Healing index is 100%.

Consider Ratanhiaphenol [F], for which, in [12] (setting [19]), the “range of effective concentration” value lay within 1.56 to 6.25 µg/mL. The “Minimum inhibitory concentration” value in [2] (Microsporum gypseum IFO 8231, aerobic, 168 hrs) was determined as 0.78 µg/mL; in [3] it was 0.39 µg/mL; in data set [4] (Trichophyton mentagrophytes IFO 5466, aerobic, 168 hrs), 1.56 µg/mL; in data set [10] it was 0.10 µg/mL; in [5] (Trichophyton rubrum IFO 5467, aerobic, 168 hrs), 1.56 µg/mL; in [6] (anaerobic) it was 6.25 µg/mL. The “Minimum inhibitory concentration” value in data set [7] (Corynebacterium acnes ATCC 11828, anaerobic, 37° C., 60 hrs) is 6.25 µg/mL; in [11] it was more than 10 µg/mL; in data set [8], 6.25 µg/mL; in data set [9], 0.39 µg/mL. Besides, the “healing effect compared with 1% clotrimazole solution” value in data set [1] is reported as “equivalent to that of 1% clotrimazole solution”. This molecule also displayed a Fungal negativity index in data set [1] of 81%. For the same molecule, the Healing index in data set [1] came out at 67%. The entries for the “range of effective concentration (100% efficiency)” value in [13] and in [14] were 1.56 to 12.5 µg/mL and 3.13 to 12.5 µg/mL, respectively. For the same molecule, the LD50 was 5000 mg/kg in “Acute toxicity in mice” (oral administration) and more than 5000 mg/kg in “Acute toxicity in mice” (subcutaneous administration). Besides, the toxicity entry in “Acute toxicity in mice” (oral or subcutaneous single dose, mice) is listed as “low”. Further, the abnormal sign result in the data set “Acute toxicity in mice” (oral or subcutaneous single dose, mice, 16 days observation) was “no abnormal sign was observed”. Besides, the “Mortalities (Dead/Treated)” value in the data set “Acute toxicity in mice” (oral, 1 g/kg) is 0/5; in “Acute toxicity in mice” (oral, 5 g/kg) it was 2/5; in the data set “Acute toxicity in mice” (subcutaneous, 1 g/kg), 0/5; in “Acute toxicity in mice” (subcutaneous, 5 g/kg), 0/5.
